From patent publication US20260078099A1, “COMPOUND, PREPARATION METHOD THEREOF, AND LIPID NANOPARTICLE AND PHARMACEUTICAL COMPOSITION” (priority 2023, published 2026)

Assays:
[1] = LNP size and PDI by dynamic light scattering; assay type: physicochemical; conditions: mRNA LNP, cationic lipid/DSPC/cholesterol/PEG-lipid 50:10:38.5:1.5
Experimental: (§1) In summary, the cationic lipid described herein, DSPC, cholesterol, and PEG-lipid were dissolved in ethanol at a molar ratio of 50:10:38.5:1.5 and diluted in 10 mM to 50 mM citrate buffer at pH 4 with mRNA. Using a microfluidic device, the lipid ethanol solution was mixed with mRNA aqueous solution at a volume ratio of 1:3 and a total flow rate ranging from 6-30 mL/min, preparing LNPs with a total lipid to mRNA weight ratio of approximately 10:1 to 30:1. Ethanol was removed by dialysis and replaced with PBS. Finally, the lipid nanoparticles were filtered through a 0.22 μm sterile filter.
(§2) The size of lipid nanoparticles was measured by dynamic light scattering using a Malvern Zetasizer Nano ZS (Malvern, UK) with a 90° scattering detection mode. The encapsulation efficiency of lipid nanoparticles was determined using the Quant-it Ribogreen RNA Quantitation Kit (Thermo Fisher Scientific, UK) according to the manufacturer's instructions. The apparent pKa of LNP formulations correlates with the delivery efficiency of nucleic acids by LNPs in vivo. The apparent pKa ranges from approximately 5 to 7. An analysis based on fluorescence from 2-(p-tolylamino)-6-naphthalenesulfonic acid (TNS) was used to determine the apparent pKa of formulations. As described above, LNP formulations containing cationic lipid/DSPC/cholesterol/DMG-PEG (50/10/38.5/1.5 mol %) in PBS were prepared. A 300 μM stock solution of TNS in distilled water was prepared. LNP formulations were diluted to 0.1 mg/mL total lipid in 3 mL of buffer solution containing 50 mM sodium citrate, 50 mM sodium phosphate, 50 mM sodium borate, and 30 mM sodium chloride (pH ranged from 3 to 9). […] S-shaped curve best-fit analysis was applied to the fluorescence data, and the pKa value was measured as the pH value producing half-maximal fluorescence intensity.

[2] = LNP encapsulation efficiency (Quant-it Ribogreen); assay type: physicochemical; conditions: mRNA LNP, cationic lipid/DSPC/cholesterol/PEG-lipid 50:10:38.5:1.5
Excerpt: Encapsulation Efficiency: The encapsulation efficiency of a therapeutic and/or prophylactic agent refers to the amount of the therapeutic and/or prophylactic agent encapsulated within or otherwise associated with the nanoparticle composition relative to the initial amount provided during preparation. Encapsulation efficiency is desirably high (such as close to 100%). Encapsulation efficiency can be measured, for example, by comparing the amount of therapeutic and/or prophylactic agent in a solution containing the nanoparticle composition before and after disruption of the nanoparticle composition using one or more organic solvents or detergents. Fluorescence can be used to measure the amount of free therapeutic and/or prophylactic agent (e.g., RNA) in solution. For the nanoparticle compositions described herein, the encapsulation efficiency of the therapeutic and/or prophylactic agent may be at least 50%, such as 50%, 55%, 60%, 65%, 70%, 75%, 80%, 85%, 90%, 91%, 92%, 93%, 94%, 95%, 96%, 97%, 98%, 99%, or 100%. In some embodiments, the encapsulation efficiency may be at least 80%. In certain embodiments, the encapsulation efficiency may be at least 90%.
as §1, §2

[3] = LNP zeta potential; assay type: physicochemical; conditions: mRNA LNP
Excerpt: Nanoparticle compositions can be characterized by various methods. For example, the morphology and size distribution of nanoparticle compositions can be examined using microscopy (e.g., transmission electron microscopy or scanning electron microscopy). The zeta potential can be measured using dynamic light scattering or potentiometric titration. Dynamic light scattering can also be used to determine particle size. Instruments such as the Zetasizer Nano ZS (Malvern Instruments Ltd., Malvern, Worcestershire, UK) can also be used to measure multiple characteristics of nanoparticle compositions, such as particle size, polydispersity index, and zeta potential.
[…]: The zeta potential of the nanoparticle composition can indicate the electrophoretic potential of the composition. For example, zeta potential may describe the surface charge of the nanoparticle composition. Nanoparticle compositions with relatively low positive or negative charges are generally desirable, as materials with higher charges may interact undesirably with cells, tissues, and other components in the body. In some embodiments, the zeta potential of the nanoparticle composition may be about −10 mV to about +20 mV, about −10 mV to about +15 mV, about −10 mV to about +10 mV, about −10 mV to about +5 mV, about −10 mV to about 0 mV, about −10 mV to about −5 mV, about −5 mV to about +20 mV, about −5 mV to about +15 mV, about −5 mV to about +10 mV, about −5 mV to about +5 mV, about −5 mV to about 0 mV, about 0 mV to about +20 mV, about 0 mV to about +15 mV, about 0 mV to about +10 mV, about 0 mV to about +5 mV, about +5 mV to about +20 mV, about +5 mV to about +15 mV, or about +5 mV to about +10 mV.

[4] = system: mice; assay: Bioluminescent study, intramuscular injection of F-luc mRNA LNPs; assay type: in vivo; conditions: F-luc luminescence flux normalized to MC3; 0.25 mg/kg intramuscular, mice n=3, 6-hour time point
Summary of the method: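 Mice (n=3) received LNP-formulated F-luc mRNA at 0.25 mg/kg intramuscularly. Bioluminescence was read 6 h after dosing. Test LNPs were made with an MC3 formulation, and PBS served as control in some groups.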

Structure (SMILES) | PDI [1] | Size (nm) [1] | Encapsulation efficiency (%) [2] | Zeta potential (mV) [3] | Relative Total flux [4]
CCCCCCCC(C(=O)NCCCCCCCCCC(=O)OC(CCCCCC)CCCCCC)N(CCCN(CCO)CCO)C(=O)CCCCCCCCCC(=O)OCC12CC3CC(CC(C3)C1)C2 (centres unmarked) [Compound B4] | 0.159 | 72.08 nm | 96.14% | 10.58 mV | A (A: ≥2)
CCCCCCCC(C(=O)NCCCCCCCCCC(=O)OC(CCCCCC)CCCCCC)N(CCCN(CCO)CCO)C(=O)CCCCCCCCCC(=O)OCC1CC=CCC1 (centres unmarked) [Compound B5] | 0.163 | 55.64 nm | 95.00% | 6.08 mV | A (A: ≥2)
CCCCCCCC(C(=O)NCCCCCCCCCC(=O)OC(CCCCCC)CCCCCC)N(CCNCCO)C(=O)CCCCCCCCCC(=O)OC(CCCCCC)CCCCCC (centres unmarked) [Compound B6] | 0.183 | 61.81 nm | 75.47% | −0.39 mV | A (A: ≥2)
CCCCCCCC(C(=O)NCCCCCCCCCC(=O)OC(CCCCCC)CCCCCC)N(CCN(CO)CO)C(=O)CCCCCCCCCC(=O)OC(CCCCCC)CCCCCC (centres unmarked) [Compound B7] | 0.116 | 58.86 nm | 85.36% | −2.80 mV | A (A: ≥2)
CCCCCCCC(C(=O)NCCCCCCCCCC(=O)OC(CCCCCC)CCCCCC)N(CCCN(C)CCO)C(=O)CCCCCCCCCC(=O)OC(CCCCCC)CCCCCC (centres unmarked) [Compound B8] | 0.152 | 60.47 nm | 91.38% | −7.30 mV | A (A: ≥2)
CCCCCCCC(C(=O)NCCCCCCCCCC(=O)OC(CCCCCC)CCCCCC)N(CCCN(CCO)C1CCC1)C(=O)CCCCCCCCCC(=O)OC(CCCCCC)CCCCCC (centres unmarked) [Compound B10] | 0.166 | 66.9 nm | 46.91% | 2.18 mV | A (A: ≥2)
CCCCCCCC(C(=O)NCCCCCCCCCC(=O)OC(CCCCCC)CCCCCC)N(CCN(CCO)C1CCC1)C(=O)CCCCCCCCCC(=O)OC(CCCCCC)CCCCCC (centres unmarked) [Compound B11] | 0.205 | 70.27 nm | 81.83% | −9.69 mV | A (A: ≥2)
CCCCCCCC(C(=O)NCCCCCCCCCC(=O)OC(CCCCCC)CCCCCC)N(CCCN(CCO)C1CCCC1)C(=O)CCCCCCCCCC(=O)OC(CCCCCC)CCCCCC (centres unmarked) [Compound B12] | 0.183 | 65.03 nm | 93.45% | −9.02 mV | A (A: ≥2)
CCCCCCCC(C(=O)NCCCCCCCCCC(=O)OC(CCCCCC)CCCCCC)N(CCCN(CCO)C1CCCCC1)C(=O)CCCCCCCCCC(=O)OC(CCCCCC)CCCCCC (centres unmarked) [Compound B14] | 0.13 | 76.67 nm | 89.01% | 2.73 mV | A (A: ≥2)
CCCCCCCC(C(=O)NCCCCCCCCCC(=O)OC(CCCCCC)CCCCCC)N(CCN(CCO)C1CCCCC1)C(=O)CCCCCCCCCC(=O)OC(CCCCCC)CCCCCC (centres unmarked) [Compound B15] | 0.182 | 87.64 nm | 95.93% | 2.43 mV | A (A: ≥2)
CCCCCCCC(C(=O)NCCCCCCCCCC(=O)OC(CCCCCC)CCCCCC)N(CCN1CCN(CCO)CC1)C(=O)CCCCCCCCCC(=O)OC(CCCCCC)CCCCCC (centres unmarked) [Compound B16] | 0.593 | 57.19 nm | 94.62% | 5.42 mV | A (A: ≥2)
CCCCCCCC(C(=O)NCCCCCCCCCC(=O)OC(CCCCCC)CCCCCC)N(CCCN1CCN(CCO)CC1)C(=O)CCCCCCCCCC(=O)OC(CCCCCC)CCCCCC (centres unmarked) [Compound B17] | 0.185 | 64.2 nm | 92.99% | 14.20 mV | A (A: ≥2)
CCCCCCCC(C(=O)NCCCCCCCCCC(=O)OC(CCCCCC)CCCCCC)N(CCn1ccnc1)C(=O)CCCCCCCCCC(=O)OC(CCCCCC)CCCCCC (centres unmarked) [Compound B18] | 0.187 | 80.68 nm | 81.99% | 4.79 mV | A (A: ≥2)
CCCCCCCC(C(=O)NCCCCCCCCCC(=O)OC(CCCCCC)CCCCCC)N(CCCn1ccnc1)C(=O)CCCCCCCCCC(=O)OC(CCCCCC)CCCCCC (centres unmarked) [Compound B20] | 0.391 | 93.23 nm | 93.73% | −2.36 mV | A (A: ≥2)
CCCCCCCC(C(=O)NCCCCCCCCCC(=O)OC(CCCCCC)CCCCCC)N(CCCNC(=S)N(C)C)C(=O)CCCCCCCCCC(=O)OC(CCCCCC)CCCCCC (centres unmarked) [Compound B21] | 0.388 | 84.45 nm | 93.97% | 6.22 mV | B (B: ≥1 and <2)
CCCCCCCC(C(=O)NCCCCCCCCCC(=O)OC(CCCCCC)CCCCCC)N(CCCNc1c(NC)c(=O)c1=O)C(=O)CCCCCCCCCC(=O)OC(CCCCCC)CCCCCC (centres unmarked) [Compound B22] | 0.165 | 141.8 nm | 95.03% | −3.48 mV | B (B: ≥1 and <2)
CCCCCCCC(C(=O)NCCCCCCCCCC(=O)OC(CCCCCC)CCCCCC)N(COC(=O)CCN(C)C)C(=O)CCCCCCCCCC(=O)OC(CCCCCC)CCCCCC (centres unmarked) [Compound B23] | 0.214 | 68.16 nm | 93.95% | 12.50 mV | B (B: ≥1 and <2)
CCCCCCCC(C(=O)NCCCCCCCCCC(=O)OC(CCCCCC)CCCCCC)N(CCOC(=O)CCN(C)C)C(=O)CCCCCCCCCC(=O)OC(CCCCCC)CCCCCC (centres unmarked) [Compound B24] | 0.245 | 68.83 nm | 93.57% | −9.96 mV | A (A: ≥2)
CCCCCCCC(C(=O)NCCCCCCCCCC(=O)OC(CCCCCC)CCCCCC)N(CCOC(=O)CCN1CCCC1)C(=O)CCCCCCCCCC(=O)OC(CCCCCC)CCCCCC (centres unmarked) [Compound B25] | 0.095 | 64.2 nm | 69.52% | −3.38 mV | A (A: ≥2)
